Measurements published in patent US7470794B2, “Preparation and use of ortho-sulfonamido aryl hydroxamic acids as matrix metalloproteinase inhibitors” (Wyeth, priority 2000, dated 2008).
Read-outs that look alike come from different tables or passages of the source.

Assays:
MMP-1 = target: T1, MMP-1 (Homo sapiens, UniProt P03956); assay: MMP-1 inhibition (thiopeptide or fluorescent peptide substrate assay); type: biochemical
T1 sequence (P03956 100-469): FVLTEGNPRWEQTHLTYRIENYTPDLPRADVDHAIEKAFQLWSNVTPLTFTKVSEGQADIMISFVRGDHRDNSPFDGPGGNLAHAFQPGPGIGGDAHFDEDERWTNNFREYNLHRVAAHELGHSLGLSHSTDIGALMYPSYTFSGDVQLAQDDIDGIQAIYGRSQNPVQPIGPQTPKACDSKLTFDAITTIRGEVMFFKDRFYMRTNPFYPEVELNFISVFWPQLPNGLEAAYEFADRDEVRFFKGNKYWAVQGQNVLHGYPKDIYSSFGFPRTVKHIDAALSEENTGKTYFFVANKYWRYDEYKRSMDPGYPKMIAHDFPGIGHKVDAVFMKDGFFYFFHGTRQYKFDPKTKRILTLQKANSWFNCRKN
Procedure: (§1) These assays are based on the cleavage of a thiopeptide substrates such as Ac-Pro-Leu-Gly(2-mercapto-4-methyl-pentanoyl)-Leu-Gly-OEt by the matrix metalloproteinases MMP-1, MMP-13 (collagenases) or MMP-9 (gelatinase), which results in the release of a substrate product that reacts colorimetrically with DTNB (5,5′-dithiobis(2-nitro-benzoic acid)). The enzyme activity is measured by the rate of the color increase. The thiopeptide substrate is made up fresh as a 20 mM stock in 100% DMSO and the DTNB is dissolved in 100% DMSO as a 100 mM stock and stored in the dark at room temperature. Both the substrate and DTNB are diluted together to 1 mM with substrate buffer (50 mM HEPES pH 7.5, 5 mM CaCl2) before use. The stock of enzyme is diluted with assay buffer (50 mM HEPES, pH 7.5, 5 mM CaCl2, 0.02% Brij) to the desired final concentration. The assay buffer, enzyme, vehicle or inhibitor, and DTNB/substrate are added in this order to a 96 well plate (total reaction volume of 200 μl) and the increase in color is monitored spectrophotometrically for 5 minutes at 405 nm on a plate reader and the increase in color over time is plotted as a linear line.
(§2) Alternatively, a fluorescent peptide substrate is used. In this assay, the peptide substrate contains a fluorescent group and a quenching group. Upon cleavage of the substrate by an MMP, the fluorescence that is generated is quantitated on the fluorescence plate reader. The assay is run in HCBC assay buffer (50 mM HEPES, pH 7.0, 5 mM Ca^+2, 0.02% Brij, 0.5% Cysteine), with human recombinant MMP-1, MMP-9, or MMP-13. The substrate is dissolved in methanol and stored frozen in 1 mM aliquots. For the assay, substrate and enzymes are diluted in HCBC buffer to the desired concentrations. Compounds are added to the 96 well plate containing enzyme and the reaction is started by the addition of substrate. The reaction is read (excitation 340 nm, emission 444 nm) for 10 min. and the increase in fluorescence over time is plotted as a linear line.
(§3) For either the thiopeptide or fluorescent peptide assays, the slope of the line is calculated and represents the reaction rate. The linearity of the reaction rate is confirmed (r^2>0.85). The mean (x±sem) of the control rate is calculated and compared for statistical significance (p<0.05) with drug-treated rates using Dunnett's multiple comparison test. Dose-response relationships can be generated using multiple doses of drug and IC50 values with 95% CI are estimated using linear regression.

MMP-9 = MMP-9 (Homo sapiens, UniProt P14780); assay: MMP-9 inhibition (thiopeptide or fluorescent peptide substrate assay); type: biochemical
Procedure: as §1, §2, §3

MMP-13 = MMP-13 (Homo sapiens, UniProt P45452); assay: MMP-13 inhibition (thiopeptide or fluorescent peptide substrate assay); type: biochemical
Procedure: as §1, §2, §3

[1] = target: T2, tumor necrosis factor-alpa converting enzyme (TACE; Immunex) (Homo sapiens, UniProt P78536); assay: TACE inhibition (fluorescent peptidyl substrate assay); type: biochemical; details: 1 μM test compound
T2 construct: purchased Immunex
Procedure: Using 96-well black microtiter plates, each well receives a solution composed of 10 μL tumor necrosis factor-alpa converting enzyme (TACE; Immunex, final concentration 1 μg/mL), 70 μL Tris buffer, pH 7.4 containing 10% glycerol (final concentration 10 mM), and 10 μL of test compound solution in DMSO (final concentration 1 μM, DMSO concentration <1%) and incubated for 10 minutes at room temperature. The reaction is initiated by addition of a fluorescent peptidyl substrate (final concentration 100 μM) to each well and then shaking on a shaker for 5 sec.
The reaction is read (excitation 340 nm, emission 420 nm) for 10 min. and the increase in fluorescence over time is plotted as a linear line. The slope of the line is calculated and represents the reaction rate.
as §3, with “The” for “For either the thiopeptide or fluorescent peptide assays, the slope of the line is calculated and represents the reaction rate. The”, “generate” for “generated”

T2 sequence (P78536 215-824): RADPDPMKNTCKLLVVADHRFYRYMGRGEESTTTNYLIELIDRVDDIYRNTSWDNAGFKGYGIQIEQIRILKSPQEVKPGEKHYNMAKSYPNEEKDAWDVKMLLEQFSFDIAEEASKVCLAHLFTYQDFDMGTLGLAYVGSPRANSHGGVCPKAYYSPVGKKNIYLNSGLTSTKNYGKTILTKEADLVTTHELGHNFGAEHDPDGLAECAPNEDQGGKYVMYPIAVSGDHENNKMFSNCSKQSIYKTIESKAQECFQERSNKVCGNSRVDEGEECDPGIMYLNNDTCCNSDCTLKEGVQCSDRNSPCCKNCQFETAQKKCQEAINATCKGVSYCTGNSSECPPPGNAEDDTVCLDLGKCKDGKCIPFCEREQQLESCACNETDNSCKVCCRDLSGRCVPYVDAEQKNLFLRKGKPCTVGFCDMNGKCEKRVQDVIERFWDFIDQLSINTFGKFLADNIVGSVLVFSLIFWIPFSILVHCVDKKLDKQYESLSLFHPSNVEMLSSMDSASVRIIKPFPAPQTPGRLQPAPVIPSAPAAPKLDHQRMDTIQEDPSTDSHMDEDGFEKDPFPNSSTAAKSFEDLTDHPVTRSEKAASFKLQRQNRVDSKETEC
Chain of MMP-9 (P14780 94-707): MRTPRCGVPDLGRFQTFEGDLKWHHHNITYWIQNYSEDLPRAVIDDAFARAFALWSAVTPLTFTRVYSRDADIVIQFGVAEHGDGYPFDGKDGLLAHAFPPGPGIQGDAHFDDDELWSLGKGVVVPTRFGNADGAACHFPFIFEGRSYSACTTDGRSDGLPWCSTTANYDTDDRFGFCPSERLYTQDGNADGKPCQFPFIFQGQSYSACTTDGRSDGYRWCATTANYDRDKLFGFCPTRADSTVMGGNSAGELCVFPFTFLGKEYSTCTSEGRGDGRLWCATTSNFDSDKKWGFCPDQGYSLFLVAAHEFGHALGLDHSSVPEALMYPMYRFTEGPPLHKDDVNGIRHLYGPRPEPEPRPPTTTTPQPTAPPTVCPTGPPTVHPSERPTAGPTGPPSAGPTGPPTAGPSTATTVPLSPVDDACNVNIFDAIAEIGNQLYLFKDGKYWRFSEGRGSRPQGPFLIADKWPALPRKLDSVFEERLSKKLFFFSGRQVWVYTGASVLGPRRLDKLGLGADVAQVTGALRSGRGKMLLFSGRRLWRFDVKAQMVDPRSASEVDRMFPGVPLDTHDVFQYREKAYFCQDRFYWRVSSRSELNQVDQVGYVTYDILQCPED

| Compound | IC50 (MMP-1) | IC50 (MMP-9) | IC50 (MMP-13) | inhibition at 1 µM [1] | melting point | IC50 (MMP-1; cells printed in μM) | TACE % inhibition @ 1 μM [1] |
| --- | --- | --- | --- | --- | --- | --- | --- |
| Cc1cccc(C(=O)NO)c1N(C)S(=O)(=O)c1ccc(OCCCNC(=O)c2ccc3c(c2)OCO3)cc1 [Example 14, N-{3-[4-({2-[(hydroxyamino)carbonyl]-6, N-dimethylanilino}sulfonyl)phenoxy]propyl}-1,3-benzodioxole-5-carboxamide] | 1.48 µM | 63.6 nM | 110 nM | 42.1% | 102 to 112 °C | – | – |
| Cc1cccc(C(=O)NO)c1N(C)S(=O)(=O)c1ccc(OCCCNC(=O)c2cc3ccccc3s2)cc1 [Example 27, N-{3-[4-({2-[(Hydroxyamino)carbonyl]-6-dimethylanilino}-sulfonyl)phenoxy]propyl}-1-benzothiophene-2-carboxamide] | – | 1390 nM | 43 nM | 22% | 100 to 105 °C | 30 µM | – |
| Cc1cccc(C(=O)NO)c1N(C)S(=O)(=O)c1ccc(OCCNC(=O)c2ccc3ccccc3n2)cc1 [Example 4, Quinoline-2-carboxylic acid(2-{4-[(2-hydroxycarbamoyl-6-methyl-phenyl)-methyl-sulfamoyl]-phenoxy}-ethyl)-amide] | 4.24 µM | 337 nM | 73 nM | 19.9% | 114 to 121 °C | – | – |
| Cc1cccc(C(=O)NO)c1N(C)S(=O)(=O)c1ccc(OCCCCNC(=O)c2cc3ccccc3o2)cc1 [Example 8, Benzofuran-2-carboxylic acid(4-{4-[(2-hydroxycarbamoyl-6-methyl-phenyl)-methyl-sulfamoyl]-phenoxy}-butyl)-amide] | 5.12 µM | 84 nM | 467 nM | 43.6% | 131 to 134 °C | – | – |
| N-{4-[4-({2-[(hydroxyamino)carbonyl]-6, N-dimethylanilino}sulfonyl)phenoxy]butyl}-1,3-benzodioxole-5-carboxamide [Example 16] | 0.999 µM | 55.7 nM | 83.5 nM | – | – | – | 27.4% |
| Cc1cccc(C(=O)NO)c1N(C)S(=O)(=O)c1ccc(OCCCNC(=O)c2cc3ccccc3o2)cc1 [Example 6, Benzofuran-2-carboxylic acid(3-{4-[(2-hydroxycarbamoyl-6-methyl-phenyl)-methyl-sulfamoyl]-phenoxy}-propyl)-amide] | 5.45 µM | 510 nM | 4.9 nM | 21.3% | 148 to 150 °C | – | – |
| Cc1cccc(C(=O)NO)c1N(C)S(=O)(=O)c1ccc(OCCNC(=O)c2cc3ccccc3s2)cc1 [Example 12, Benzo[b]thiophene-2-carboxylic acid(2-{4-[(2-hydroxycarbamoyl-6-methyl-phenyl)-methyl-sulfamoyl]-phenoxy}-ethyl)-amide] | – | 914 nM | 595 nM | 15.2% | 169 to 171 °C | > 10 µM | – |
| Cc1cc(C)c(N(Cc2ccccc2)S(=O)(=O)c2ccc(OCCNC(=O)c3cc4ccccc4o3)cc2)c(C(=O)NO)c1 [Example 31, Benzofuran-2-carboxylic acid(2-{4-[benzyl-(2-hydroxycarbamoyl-4,6-dimethyl-phenyl)-sulfamoyl]-phenoxy}-ethyl)-amide] | – | – | 17.1 nM | 18.9% | – | – | – |
| Cc1cccc(C(=O)NO)c1N(C)S(=O)(=O)c1ccc(OCCCNC(=O)c2cc3ccccc3[nH]2)cc1 [Example 10, 1H-Indole-2-carboxylic acid(3-{4-[(2-hydroxycarbamoyl-6-methyl-phenyl)-methyl-sulfamoyl]-phenoxy}-propyl)-amide] | 5.64 µM | 305 nM | 178 nM | 35.7% | 144 to 146 °C | – | – |
